Where two headings read alike, the source gives them in different places.
Experiments:
IRAK4 [1] = biological target: T1, IRAK4 (Homo sapiens (Human), UniProt Q9NWZ3); assay: IRAK4 Degradation HiBiT Assay; settings: HiBiT-tagged Jurkat cells, 4 hrs; for Dmax: Jurkat; for DC50: read-out: Cellular IRAK4 HiBiT: DC50
Target sequence in this assay (Q9NWZ3 whole entry): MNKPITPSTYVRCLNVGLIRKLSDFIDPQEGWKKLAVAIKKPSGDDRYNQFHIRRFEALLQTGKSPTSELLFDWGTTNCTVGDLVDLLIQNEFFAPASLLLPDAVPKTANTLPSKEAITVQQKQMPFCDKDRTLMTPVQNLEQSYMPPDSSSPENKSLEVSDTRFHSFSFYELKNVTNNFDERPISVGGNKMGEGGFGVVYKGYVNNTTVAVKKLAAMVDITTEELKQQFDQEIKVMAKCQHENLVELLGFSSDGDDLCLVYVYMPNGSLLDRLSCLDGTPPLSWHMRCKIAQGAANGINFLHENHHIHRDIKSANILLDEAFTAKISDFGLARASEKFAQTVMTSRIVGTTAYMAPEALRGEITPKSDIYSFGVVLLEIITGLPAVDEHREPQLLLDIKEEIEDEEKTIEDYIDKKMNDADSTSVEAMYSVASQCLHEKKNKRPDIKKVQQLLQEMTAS

IRAK4 [2] = biological target: T1, IRAK4; assay: IRAK4 Biochemical HTRF Kinase Assay; settings: read-out: IRAK4 HTRF biochemical: IC50
Outline: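 IC50 values derive from non-linear regression of sixteen concentrations in duplicate. Kinase reaction ran 90 min at ambient temperature after adding 5 μM STK-S1 substrate, 10 mM ATP and 10 mM MgCl2 (reaction-solution levels, pre-dilution to 10 μl); phospho-peptide detected by HTRF after 60 min.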
Target sequence in this assay (Q9NWZ3 whole entry, species assumed): as the sequence (Q9NWZ3 whole entry) above

[3] = read-out: Cellular IRAK4 HiBiT: Dmax, Table 4
[4] = read-out: Cellular IRAK4 HiBiT: Dmax, Table 5, multiple runs

| Dmax (IRAK4 [1]; [3]) | Dmax (IRAK4 [1]; [4]) | DC50 (IRAK4 [1]; Table 4) | DC50 (IRAK4 [1]; Table 5, multiple runs) | IC50 (IRAK4 [2]; Table 4) | IC50 (IRAK4 [2]; Table 5, multiple runs) | Compound |
| --- | --- | --- | --- | --- | --- | --- |
| 119% | 119% | 0.691 µM | 0.691 µM | 0.004 µM | 0.004 µM | Cc1ncsc1-c1ccc(CNC(=O)[C@@H]2C[C@@H](O)CN2C(=O)[C@@H](NC(=O)C2(F)CC2)C(C)(C)C)c(OCCOCCOCCOCCOCCOCCC(=O)N2CCN(c3nnc(-c4cnc(-c5ccc6cc(C#N)cnn56)cc4NC(C)C)s3)CC2)c1 [Example 48, (2S,4R)—N-(2-((18-(4-(5-(6-(3-cyanopyrrolo[1,2-b]pyridazin-7-yl)-4-(isopropylamino)pyridin-3-yl)-1,3,4-thiadiazol-2-yl)piperazin-1-yl)-18-oxo-3,6,9,12,15-pentaoxaoctadecyl)oxy)-4-(4-methylthiazol-5-yl)benzyl)-1-((S)-2-(1-fluorocyclopropane-1-carboxamido)-3,3-dimethylbutanoyl)-4-hydroxypyrrolidine-2-carboxamide] |
| 111% | 111% | 0.231 µM | 0.231 µM | 0.0046 µM | 0.0046 µM | Cc1ncsc1-c1ccc(CNC(=O)[C@@H]2C[C@@H](O)CN2C(=O)[C@@H](NC(=O)C2(F)CC2)C(C)(C)C)c(OCCOCCOCCOCCC(=O)N2CCN(c3nnc(-c4cnc(-c5ccc6cc(C#N)cnn56)cc4NC(C)C)s3)CC2)c1 [Example 49, (2S,4R)—N-(2-(2-(2-(2-(3-(4-(5-(6-(3-cyanopyrrolo[1,2-b]pyridazin-7-yl)-4-(isopropylamino)pyridin-3-yl)-1,3,4-thiadiazol-2-yl)piperazin-1-yl)-3-oxopropoxy)ethoxy)ethoxy)ethoxy)-4-(4-methylthiazol-5-yl)benzyl)-1-((S)-2-(1-fluorocyclopropane-1-carboxamido)-3,3-dimethylbutanoyl)-4-hydroxypyrrolidine-2-carboxamide] |
| 67% | 67% | 0.197 µM | 0.197 µM | 0.0031 µM | 0.0032 µM | CN[C@@H](C)C(=O)N[C@H](C(=O)N1CCC[C@H]1c1nc(C(=O)c2cccc(OCCOCCC(=O)N3CCN(c4nnc(-c5cnc(-c6ccc7cc(C#N)cnn67)cc5NC(C)C)s4)CC3)c2)cs1)C1CCCCC1 [Example 50, (S)—N—((S)-2-((S)-2-(4-(3-(2-(3-(4-(5-(6-(3-cyanopyrrolo[1,2-b]pyridazin-7-yl)-4-(isopropylamino)pyridin-3-yl)-1,3,4-thiadiazol-2-yl)piperazin-1-yl)-3-oxopropoxy)ethoxy)benzoyl)thiazol-2-yl)pyrrolidin-1-yl)-1-cyclohexyl-2-oxoethyl)-2-(methylamino)propanamide] |
| 45% | 45% | 0.934 µM | 0.937 µM | 0.0066 µM | 0.0066 µM | CN[C@@H](C)C(=O)N[C@H](C(=O)N1CCC[C@H]1c1nc(C(=O)c2cccc(OCCOCCOCCOCCC(=O)N3CCN(c4nnc(-c5cnc(-c6ccc7cc(C#N)cnn67)cc5NC(C)C)s4)CC3)c2)cs1)C1CCCCC1 [Example 55, (S)—N—((S)-2-((S)-2-(4-(3-(2-(2-(2-(3-(4-(5-(6-(3-cyanopyrrolo[1,2-b]pyridazin-7-yl)-4-(isopropylamino)pyridin-3-yl)-1,3,4-thiadiazol-2-yl)piperazin-1-yl)-3-oxopropoxy)ethoxy)ethoxy)ethoxy)benzoyl)thiazol-2-yl)pyrrolidin-1-yl)-1-cyclohexyl-2-oxoethyl)-2-(methylamino)propanamide] |
| 115% | 117% | 0.0776 µM | 0.0529 µM | 0.00279 µM | 0.0015 µM | CNc1cc(-c2ccc3cc(C#N)cnn23)ncc1-c1nnc([C@H]2CC[C@H](NC(=O)CCC(=O)N[C@H](C(=O)N3C[C@H](O)C[C@H]3C(=O)N[C@@H](C)c3ccc(-c4scnc4C)cc3)C(C)(C)C)CC2)s1 [Example 56, N1-((1r,4S)-4-(5-(6-(3-cyanopyrrolo[1,2-b]pyridazin-7-yl)-4-(methylamino)pyridin-3-yl)-1,3,4-thiadiazol-2-yl)cyclohexyl)-N4—((S)-1-((2S,4R)-4-hydroxy-2-(((S)-1-(4-(4-methylthiazol-5-yl)phenyl)ethyl)carbamoyl)pyrrolidin-1-yl)-3,3-dimethyl-1-oxobutan-2-yl)succinamide] |
| 107% | 114% | 0.0896 µM | 0.0814 µM | 0.0029 µM | 0.0029 µM | CNc1cc(-c2ccc3cc(C#N)cnn23)ncc1-c1nnc([C@H]2CC[C@H](NC(=O)CCCCC(=O)N[C@H](C(=O)N3C[C@H](O)C[C@H]3C(=O)N[C@@H](C)c3ccc(-c4scnc4C)cc3)C(C)(C)C)CC2)s1 [Example 57, N1-((1r,4S)-4-(5-(6-(3-cyanopyrrolo[1,2-b]pyridazin-7-yl)-4-(methylamino)pyridin-3-yl)-1,3,4-thiadiazol-2-yl)cyclohexyl)-N6—((S)-1-((2S,4R)-4-hydroxy-2-(((S)-1-(4-(4-methylthiazol-5-yl)phenyl)ethyl)carbamoyl)pyrrolidin-1-yl)-3,3-dimethyl-1-oxobutan-2-yl)adipamide] |
| 115% | 118% | 0.0728 µM | 0.0737 µM | 0.00526 µM | 0.0053 µM | CNc1cc(-c2ccc3cc(C#N)cnn23)ncc1-c1nnc([C@H]2CC[C@H](NC(=O)CCOCCOc3cc(-c4scnc4C)ccc3CNC(=O)[C@@H]3C[C@@H](O)CN3C(=O)[C@@H](NC(=O)C3(F)CC3)C(C)(C)C)CC2)s1 [Example 58, (2S,4R)—N-(2-(2-(3-(((1r,4r)-4-(5-(6-(3-cyanopyrrolo[1,2-b]pyridazin-7-yl)-4-(methylamino)pyridin-3-yl)-1,3,4-thiadiazol-2-yl)cyclohexyl)amino)-3-oxopropoxy)ethoxy)-4-(4-methylthiazol-5-yl)benzyl)-1-((S)-2-(1-fluorocyclopropane-1-carboxamido)-3,3-dimethylbutanoyl)-4-hydroxypyrrolidine-2-carboxamide] |

| Compound | Dmax (IRAK4 [1]; [3]) | Dmax (IRAK4 [1]; [4]) | DC50 (IRAK4 [1]; Table 4) | DC50 (IRAK4 [1]; Table 5, multiple runs) | IC50 (IRAK4 [2]; Table 4) | IC50 (IRAK4 [2]; Table 5, multiple runs) |
| --- | --- | --- | --- | --- | --- | --- |
| CN[C@@H](C)C(=O)N[C@H](C(=O)N1C[C@@H](NC(=O)CCCCC(=O)N2CCN(c3nnc(-c4cnc(-c5ccc6cc(C#N)cnn56)cc4NC(C)C)s3)CC2)C[C@H]1C(=O)N[C@@H]1CCCc2ccccc21)C1CCCCC1 [Example 51, (2S,4S)-4-(6-(4-(5-(6-(3-cyanopyrrolo[1,2-b]pyridazin-7-yl)-4-(isopropylamino)pyridin-3-yl)-1,3,4-thiadiazol-2-yl)piperazin-1-yl)-6-oxohexanamido)-1-((S)-2-cyclohexyl-2-((S)-2-(methylamino)propanamido)acetyl)-N—((R)-1,2,3,4-tetrahydronaphthalen-1-yl)pyrrolidine-2-carboxamide] | 48% | 47% | 0.638 µM | 0.502 µM | 0.002 µM | 0.002 µM |
| CN[C@@H](C)C(=O)N[C@H](C(=O)N1C[C@@H](NC(=O)CCCCCCC(=O)N2CCN(c3nnc(-c4cnc(-c5ccc6cc(C#N)cnn56)cc4NC(C)C)s3)CC2)C[C@H]1C(=O)N[C@@H]1CCCc2ccccc21)C1CCCCC1 [Example 52, (2S,4S)-4-(8-(4-(5-(6-(3-cyanopyrrolo[1,2-b]pyridazin-7-yl)-4-(isopropylamino)pyridin-3-yl)-1,3,4-thiadiazol-2-yl)piperazin-1-yl)-8-oxooctanamido)-1-((S)-2-cyclohexyl-2-((S)-2-(methylamino)propanamido)acetyl)-N—((R)-1,2,3,4-tetrahydronaphthalen-1-yl)pyrrolidine-2-carboxamide] | 70% | 70% | 0.422 µM | 0.422 µM | 0.0019 µM | 0.0019 µM |
| CN[C@@H](C)C(=O)N[C@H](C(=O)N1C[C@@H](NC(=O)CCCCCCCCCCC(=O)N2CCN(c3nnc(-c4cnc(-c5ccc6cc(C#N)cnn56)cc4NC(C)C)s3)CC2)C[C@H]1C(=O)N[C@@H]1CCCc2ccccc21)C1CCCCC1 [Example 53, (2S,4S)-4-(12-(4-(5-(6-(3-cyanopyrrolo[1,2-b]pyridazin-7-yl)-4-(isopropylamino)pyridin-3-yl)-1,3,4-thiadiazol-2-yl)piperazin-1-yl)-12-oxododecanamido)-1-((S)-2-cyclohexyl-2-((S)-2-(methylamino)propanamido)acetyl)-N—((R)-1,2,3,4-tetrahydronaphthalen-1-yl)pyrrolidine-2-carboxamide] | 48% | 82% | 0.993 µM | 8.75 µM | 0.0058 µM | 0.0058 µM |
| CN[C@@H](C)C(=O)N[C@H](C(=O)N1C[C@@H](NC(=O)CCOCCC(=O)N2CCN(c3nnc(-c4cnc(-c5ccc6cc(C#N)cnn56)cc4NC(C)C)s3)CC2)C[C@H]1C(=O)N[C@@H]1CCCc2ccccc21)C1CCCCC1 [Example 54, (2S,4S)-4-(3-(3-(4-(5-(6-(3-cyanopyrrolo[1,2-b]pyridazin-7-yl)-4-(isopropylamino)pyridin-3-yl)-1,3,4-thiadiazol-2-yl)piperazin-1-yl)-3-oxopropoxy)propanamido)-1-((S)-2-cyclohexyl-2-((S)-2-(methylamino)propanamido)acetyl)-N—((R)-1,2,3,4-tetrahydronaphthalen-1-yl)pyrrolidine-2-carboxamide] | 48% | 48% | 0.816 µM | 0.794 µM | 0.0006 µM | 0.0006 µM |
